Data reported in patent US9265707B2, “Cosmetic composition comprising coumestrol or a bean extract containing coumestrol for skin care” (AMOREPACIFIC CORPORATION, priority 2010, dated 2016).

How the values were obtained:
[1] = tested on: UVB-induced reactive oxygen species (ROS) in keratinocytes; assay: Scavenging of UVB-induced reactive oxygen species (DCFH-DA fluorescence); assay type: cell-based; settings: UVB 30 mJ/cm^2, relative to UV-treated control
Text: 2′,7′-Dichlorodihydrofluorescein diacetate (DCFH-DA; Molecular Probes, Inc., OR, USA) was used to evaluate the coumestrol's effect of scavenging UVB-induced ROS. DCFH-DA is an fat-soluble substance well known as a detector of ROS in cells. It is easily absorbed by cells and turned into water-soluble 2′,7′-dichlorodihydrofluorescein as a result of hydrolysis of the acetate group by esterase in the cells. Since it is turned to 2′,7′-dichlorofluorescein (DCF) which emits fluorescence after reaction with intracellular oxidizing agents, the quantity of intracellular ROS can be evaluated by measuring the intensity of fluorescence from cells treated with DCFH-DA.
Keratinocytes (acquired from Dr. Fusenig at German Cancer Research Center) were seeded onto a 96-well black plate (Greiner BioOne Inc., NC, USA) for fluorescence measurement at a density of 1×10^4 cells per well and cultured for 24 hours. Then, the cells were treated with coumestrol diluted in fresh FBS-free medium to a final concentration of 0.01, 0.1 or 1 μM. After addition of the test substance, the cells were cultured for 24 hours. After removing the remaining medium by washing with HEPES-buffered control salt solution (HCSS), 20 μM DCFH-DA in 100 μL of HCSS was added. […] Then, after adding 100 μL of HCSS, the cells were irradiated with UVB of 30 mJ/cm^2 to induce production of ROS. […] The fluorescence intensity of DCF was measured with the Wallac VICTOR2 fluorometer (Wallac, Turku, Finland) at excitation wavelength of 485 nm and emission wavelength of 530 nm. ROS scavenging effect (%) relative to the control group was calculated from the measured fluorescence intensity.

MMP-1 = assay: Inhibition of UV-induced MMP-1 expression (ELISA); assay type: cell-based; settings: Fibroblast, light or radiation study, human fibroblasts, UVB 15 mJ/cm^2, 48 hours, untreated control 100, UV-treated control 132, read-out: MMP1 activity (%)
Protocol: Human fibroblasts (CAS-C-004-5C, Invitrogen, CA, USA) were used to evaluate the coumestrol's effect of inhibiting UV-induced MMP-1 expression. The cells were seeded onto a 24-well plate at a density of 1×10^4 cells per well and cultured for about 24 hours in a medium containing 10% FBS until ˜about 80% confluency. After replacing the medium with an FBS-free medium, the cells were cultured for 24 hours. After washing once with PBS and adding 100 μL of PBS, the cells were irradiated with UVB of 15 mJ/cm^2. After removing the PBS, the cells were treated with coumestrol diluted to a final concentration of 0.01, 0.1 or 1 μM in a fresh FBS-free medium. Expression of MMP-1 was evaluated 48 hours after the treatment with the test substance. The expression of MMP-1 was evaluated using an enzyme-linked immunosorbent assay (ELISA) kit (RPN 2610; Biotrak Amersham Pharmacia Biotech, UK) after collecting a supernatant from the cell culture. The quantity of MMP-1 was determined from the total protein quantity.

type I pN collagen = assay: Type I pN collagen synthesis (PIP EIA kit); assay type: cell-based; settings: human fibroblasts, 48 hours, untreated control 100
Protocol: Human fibroblasts (CAS-C-004-5C, Invitrogen, CA, USA) were used to evaluate the coumestrol's effect on type I pN collagen synthesis. The cells were seeded onto a 24-well plate at a density of 1×10^4 cells per well and cultured for about 24 hours in a medium containing 10% FBS until ˜about 80% confluency. The cells were treated with coumestrol diluted to a final concentration of 0.01, 0.1 or 1 μM in a fresh FBS-free medium. The synthesized quantity of type I pN collagen was measured using a procollagen type I C-peptide (PIP) EIA kit (MK101; Takara Shuzo, Kyoto, Japan) by collecting a supernatant from the cell culture 48 hours after the treatment with the test substance. The quantity of type I pN collagen was determined from the total protein quantity.

[2] = tested on: advanced glycation end product (AGE) in human fibroblasts; assay: Inhibition of glycation of skin cells (AGE ELISA); assay type: cell-based; settings: 2.5 μM, UVB 50 mJ/cm^2, 24 hours, untreated control 0.156
Protocol: (§1) Human fibroblasts (CAS-C-004-5C, Invitrogen, CA, USA) were used to evaluate the coumestrol's effect of inhibiting glycation of skin cells. The cells were seeded onto a 6-well plate at a density of 5×10^4 cells per well and cultured for about 24 hours in a medium containing 10% FBS until ˜about 80% confluency. After washing once with PBS and adding 100 μL of PBS, the cells were irradiated with UVB of 50 mJ/cm^2. After removing the PBS, the cells were treated with coumestrol diluted to a final concentration of 2.5 μM in a fresh FBS-free medium. Glycation of skin cells was evaluated using the Oxiselect™ advanced glycation end product (AGE) ELISA kit 24 hours after the treatment with the test substance.

[3] = tested on: ATP production in human fibroblasts; assay: ATP production in cells (ATP determination kit); assay type: cell-based; settings: 2.5 μM; human fibroblasts treated as in Test Example 4; untreated control 803
Protocol: as §1
Following treatment of human fibroblasts (CAS-C-004-5C, Invitrogen, CA, USA) as in Test Example 4, ATP production in the cells was evaluated using an ATP determination kit (Invitrogen, A22066).

[4] = tested on: Mouse melanocytes (MeI-Ab cells); assay: Inhibition of melanin production; assay type: cell-based; settings: Melanocyte, read-out: Melanin production inhibiting effect (%)
[5] = tested on: prostaglandin E2 production in human fibroblasts; assay: Inhibition of prostaglandin E2 (PGE2) production; assay type: cell-based; settings: Fibroblast, A23187 and arachidonic acid stimulation, relative to coumestrol-untreated group, average of 5, read-out: Prostaglandin E2 production inhibiting effect (%)
Protocol: The coumestrol's effect of inhibiting prostaglandin E2 production was tested as follows. Human fibroblasts (CAS-C-004-5C, Invitrogen, CA, USA) were cultured for 24 hours in a CO2 incubator. After replacing the medium with a fresh FBS-free medium and culturing for 2 hours, the cells were treated with coumestrol diluted to a final concentration of 0.01, 0.1 or 1 μM in a fresh FBS-free medium. The cells were then cultured for 2 hours at 37° C. in a 5% (v/v) CO2 incubator. Subsequently, after treating with 50 μM Calcium Ionophore A23187 and arachidonic acid for 5 minutes to stimulate prostaglandin E2, the cells were lysed and prostaglandin E2 was quantitated by measuring absorbance at 450 nm using an ELISA reader. The inhibiting effect (%) was calculated relative to the coumestrol-untreated group. Measurement was made 5 times and the result was averaged.

Cyclooxygenase-2 (COX-2) = assay: Inhibition of COX-2 biosynthesis induced by LPS (western blotting); assay type: cell-based; settings: human fibroblasts, 24 hours
Protocol: Human fibroblasts (CAS-C-004-5C, Invitrogen, CA, USA) were used to evaluate the coumestrol's effect of inhibiting COX-2 biosynthesis. The cells were seeded onto a 6-well plate at a density of 5×10^4 cells per well and cultured for about 24 hours in a medium containing 10% FBS until ˜80% confluency. The cells were treated with coumestrol diluted to a final concentration of 0.01, 0.1 or 1 μM in a fresh FBS-free medium and then cultured for 24 hours at 37° C. in a 5% (v/v) CO2 incubator. The cells were harvested and the produced COX-2 was quantitated by western blotting.

atopic symptoms = assay: Improvement of atopic dermatitis (questionnaire, 12 weeks of ointment); assay type: in vivo, human; settings: ointment containing 0.1% coumestrol, twice a day, people with atopic symptoms
Text: They were asked to apply the ointment for 12 weeks, twice a day, at the sites of atopic symptoms. 12 weeks later, the improvement of the atopic symptoms was examined using a questionnaire. Improvement of typical symptoms of atopic dermatitis including “itchiness”, “dryness”, “keratinization”, “dandruff”, “erythema”, “swelling”, “skin fissure” and “ooze and eczema” was examined. The subjects were asked to score the improvement of the symptoms and the result was averaged to evaluate the improvement of atopic dermatitis.

[6] = tested on: transepidermal water loss; assay: Skin moisturization: transepidermal water loss; assay type: in vivo, human; settings: ointment containing 0.1% coumestrol, 24° C., RH 40%
Text: They were asked to apply the ointment for 12 weeks, twice a day, at the sites of atopic symptoms. 12 weeks later, the improvement of the atopic symptoms was examined using a questionnaire. Improvement of typical symptoms of atopic dermatitis including “itchiness”, “dryness”, “keratinization”, “dandruff”, “erythema”, “swelling”, “skin fissure” and “ooze and eczema” was examined. The subjects were asked to score the improvement of the symptoms and the result was averaged to evaluate the improvement of atopic dermatitis. In order to evaluate the improvement of skin moisturizing ability, transepidermal water loss was measured for the subjects of Test Example 9 under constant-temperature, constant-humidity conditions (24° C., RH 40%) using a […].

SMILES: O=c1oc2cc(O)ccc2c2oc3cc(O)ccc3c12 [Coumestrol, 3,9-dihydroxy-6H-benzofuro(3,2-c)(1)benzopyran-6-one]
- ROS scavenging effect (%) ([1]; 0.01 μM): 18.7%
- ROS scavenging effect (%) ([1]; 0.1 μM): 25.6%
- ROS scavenging effect (%) ([1]; 1 μM): 55.1%
- activity at 0.01 µM (MMP-1; 0.01 μM): 115%
- activity at 0.1 µM (MMP-1; 0.1 μM): 102%
- activity at 1 µM (MMP-1; 1 μM): 98%
- Synthesis of type I pN collagen (%) (type I pN collagen; 0.01 μM): 115%
- Synthesis of type I pN collagen (%) (type I pN collagen; 0.1 μM): 126%
- Synthesis of type I pN collagen (%) (type I pN collagen; 1 μM): 129%
- Concentration of glycation end product [2]: 0.077 µg/mL
- Concentration of ATP [3]: 917 nM
- inhibition at 0.01 µM [4]: 1.2%
- inhibition at 0.1 µM [4]: 24.4%
- inhibition at 1 µM [4]: 30.1%
- inhibition at 0.01 µM ([5]; 0.01 μM): 12.8%
- inhibition at 0.1 µM ([5]; 0.1 μM): 24.8%
- inhibition at 1 µM ([5]; 1 μM): 38.2%
- COX-2 expression level (% relative to control) (Cyclooxygenase-2 (COX-2); 0.01 μM): 89 % relative to control
- COX-2 expression level (% relative to control) (Cyclooxygenase-2 (COX-2); 0.1 μM): 81 % relative to control
- COX-2 expression level (% relative to control) (Cyclooxygenase-2 (COX-2); 1 μM): 64 % relative to control
- Number of subjects Aggravated (atopic symptoms): 0
- Number of subjects Improved (atopic symptoms): 8
- Number of subjects Not changed (atopic symptoms): 2
- Number of subjects Remarkably improved (atopic symptoms): 5
- Transepidermal water loss (%) ([6]; 1 week later, control 34): 30%
- Transepidermal water loss (%) ([6]; 4 weeks later, control 39): 32%
- Transepidermal water loss (%) ([6]; 8 weeks later, control 41): 26%
- Transepidermal water loss (%) ([6]; 12 weeks later, control 36): 15%

SMILES: Oc1ccc(O)cc1 [Hydroquinone, hydroquinone, reference compound]
- inhibition at 10 µM ([4]; 10 μM (positive control), MeI-Ab cells): 41.1%
